In patent publication US10716795B2, “Steroid analogues for neuroprotection” (Emory University, priority 2008, dated 2020):
In brackets after ≈: the same amount, converted by molar mass. Where a name gives a salt, the structure may show the parent alone.

Experiments:
cerebral edema = cerebral edema assay in whole animal model of TBI (cortical contusion); assay type: in vivo, rat; settings: for efficacy in the cerebral edema assay (edema reduction) relative to PROG or group / mean % difference edema (injured vs non-injured tissue): male rats, cortical contusion; for efficacy in the cerebral edema assay (edema reduction) relative to PROG or group: two 8 mg/kg doses at 1 h and 6 h; for mean % difference edema (injured vs non-injured tissue): two 8 mg/kg doses at 1 h and 6 h post-surgery, brain tissue 24 hours post brain injury; for edema compared to subjects treated with vehicle: rat brain tissue 24 hours post brain injury
Protocol: Anesthetized male rats were first subjected to cortical contusion and were then given two 8 mg/kg doses of the test compound, the first at 1 h post-surgery and the second at 6 h. The animals were then sacrificed and tissue samples were taken from both injured and non-injured sections of the brain. Wet and dry weights were collected for each sample and cerebral edema (% water content) was determined as the difference in wet and dry weights divided by the wet weight. A “% mean difference” value could then be calculated based on the relative edema difference between injured and non-injured tissue samples for a given animal. […] The “vehicle” group were subjected to cortical injury but received only the drug carrier (22.5% 2-hydroxypropyl-β-cyclodextrine in water). All experimental treatments given by injection were made in stock solutions using 2-Hydroxypropyl-b-cyclodextrin (HBC; 45% w/v solution in H2O) as the solvent. These experimental solutions were then diluted 1:1 with sterile water for a final concentration of HBC of 22.5%.

[1] = pharmacokinetic analysis in non-injury whole animal rat study (serum levels); settings: IV 10 mg/kg, serum over 12 h
Protocol: Select compounds were submitted for pharmacokinetic analysis in a non-injury whole animal rat study.
The compounds were intravenously (IV) dosed at 10 mg/kg and serum samples were taken at several time points over the course of 12 h. Serum concentration levels were determined for the analogues, as well as for their respective parent compound.

physchem = test: physchem
Protocol: Several compounds were screened for solubility (FIG. 2). Solubility testing was done in phosphate buffered saline, which is considered to be a good model system for physiological conditions. Compounds were added in small portions at room temperature with stirring until a visible endpoint of saturation was reached.

Primary cortical cells = test: MTT assay of glutamate toxicity in primary cortical cells; assay type: cell-based; settings: for reduction in cell death at 5 μM: 5 μM compound, glutamate 0.5 μM 24 h; for reduction in cell death best concentration: 24 h pre-treatment, then glutamate 0.5 μM 24 h, at the best concentration; for cell survival / reduction in cell death (in words): glutamate toxicity, cortical neurons; for best concentration (for reduction in cell death): tested 0.1-80 μM, glutamate 0.5 μM
Protocol: Primary cortical cells were seeded in multi-well plates and cultured for 8 days. […] Cells were next exposed to glutamate (0.5 μM) for the following 24 h. Cytotoxicity was assessed by the MTT [3-(4,5-dimethylthiazol-2-yl)-2,5-diphenyltetrazolium bromide] assay, which is based on the ability of a mitochondrial dehydrogenase enzyme from viable cells to cleave the tetrazolium rings of the pale yellow MTT. This reaction forms dark blue formazan crystals which are largely impermeable to cell membranes, thus resulting in their accumulation within healthy cells. Solubilization of the cells results in the liberation of the crystals, which are then also solubilized. The number of surviving cells is directly proportional to the level of the formazan product created.

[2] = cited from earlier work
[3] = PROG IP at 4 mg/kg, male rats; cited from earlier work
[4] = tested on: PR-mediated gene transcription; test: PR-mediated gene transcription; assay type: cell-based
glutathione reductase = glutathione reductase activity following TBI; assay type: in vivo; settings: relative to progesterone and allopregnanolone
[5] = aqueous buffer, thermodynamic from solid

## CC(=O)[C@H]1CCC2C3CC[C@H]4C[C@H](OC(=O)[C@@H](N)C(C)C)CC[C@]4(C)C3CC[C@@]21C (stereo partly drawn) [Compound P1-131, 3α-L-Valine-5α-pregnan-20-one HCl Salt]
Cerebral edema
  efficacy in the cerebral edema assay (edema reduction) relative to PROG or group: greatest edema reduction among the ALLO isomer group
[1]
  in vivo stability of amino acid side chain / conversion to parent compound: stable for a prolonged period of time and only gradually converted to its parent, ALLO

## CC(=O)[C@H]1CCC2C3CCC4=C[C@@H](OC(=O)[C@@H](N)C(C)C)CC[C@]4(C)C3CC[C@@]21C (stereo partly drawn) [Compound P1-31, 3β-L-Valine-progesterone-HC]
physchem; [5]
  solubility: 3850 µg/mL (≈ 9.26 mM)
Cerebral edema
  efficacy in the cerebral edema assay (edema reduction) relative to PROG or group: equivalent efficacy to progesterone
  mean % difference edema (injured vs non-injured tissue): 2.2%
  edema compared to subjects treated with vehicle: decrease in edema
[1]
  in vivo stability of amino acid side chain / conversion to parent compound: cleaved almost immediately

## CC(=O)[C@H]1CC[C@H]2[C@@H]3CCC4=C/C(=N/OC(=O)[C@@H](N)C(C)C)CC[C@]4(C)[C@H]3CC[C@]12C [Compound P1-185, 3-Valine-E-oxime-progesterone HCl]
physchem; [5]
  solubility: 13000 µg/mL
Cerebral edema
  efficacy in the cerebral edema assay (edema reduction) relative to PROG or group: equivalent efficacy to progesterone
Primary cortical cells
  reduction in cell death at 5 μM: 27%
  reduction in cell death best concentration: 27%
  cell survival / reduction in cell death (in words): highest levels of cell survival among the compounds screened
  best concentration (for reduction in cell death): 5 µM

## CC(=O)[C@H]1CCC2C3CCC4=CC(=O)CC[C@]4(C)C3CC[C@@]21C (some centres unmarked) [PROG, progesterone, reference compound]
Cerebral edema
  mean % difference edema (injured vs non-injured tissue): 2.0%
  edema compared to subjects treated with vehicle: decrease in edema
[2]; 100 moderate to severe TBI patients, 3 days intravenous treatment
  reduction of mortality: over 60%
[2]; 30 days post-injury
  functional outcomes: significantly improved functional outcomes
Primary cortical cells
  reduction in cell death at 5 μM: 4%
  reduction in cell death best concentration: 42%
  best concentration (for reduction in cell death): 20 µM
[3]
  maximum serum concentration: 28 ng/mL

## CC(=O)[C@@H]1CCC2C3CCC4=CC(=O)CC[C@@]4(C)C3CC[C@]21C (stereo partly drawn) [ent-PROG, ent-Progesterone]
[4]
  activation of PR-mediated gene transcription: does not activate
Glutathione reductase
  glutathione reductase activity: significantly increased glutathione reductase activity

## CC(=O)[C@H]1CCC2C3CCC4=C/C(=N/OC(=O)[C@@H](N)Cc5c[nH]c6ccccc56)CC[C@]4(C)C3CC[C@@]21C (stereo partly drawn) [Compound P1-79, O-L-Tryptophan-C3-oxime-progesterone HCl Salt]
Cerebral edema
  mean % difference edema (injured vs non-injured tissue): 1.9%
  edema compared to subjects treated with vehicle: decrease in edema

## CC(=O)[C@H]1CC[C@H]2[C@@H]3CC[C@H]4C[C@H](O)CC[C@]4(C)[C@H]3CC[C@]12C [ALLO, allopregnanolone, reference compound]
Primary cortical cells
  reduction in cell death at 5 μM: −3%
  reduction in cell death best concentration: 40%
  best concentration (for reduction in cell death): 80 µM

## CC(C)[C@H](N)C(=O)O[C@@H](C)[C@H]1CCC2C3CCC4=CC(=O)CC[C@]4(C)C3CC[C@@]21C (stereo partly drawn) [Compound P1-57, 20-S-L-Valine-progesterone HCl Salt]
Primary cortical cells
  reduction in cell death at 5 μM: 23%
  reduction in cell death best concentration: 30%
  cell survival / reduction in cell death (in words): significant reductions in cell death
  best concentration (for reduction in cell death): 10 µM

## CC(=O)[C@H]1CC[C@H]2[C@@H]3CCC4=C[C@@H](OC(=O)[C@@H]5CCCN5)CC[C@]4(C)[C@H]3CC[C@]12C [Compound P1-33, 3β-L-Proline-progesterone-HCl]
[1]
  in vivo stability of amino acid side chain / conversion to parent compound: cleaved almost immediately

## CC(=O)[C@H]1CCC2C3CC[C@@H]4C[C@H](OC(=O)[C@@H](N)C(C)C)CC[C@]4(C)C3CC[C@@]21C (stereo partly drawn) [Compound P1-133, 3α-L-Valine-5-pregnane-20-one HCl Salt]
physchem; [5]
  solubility: 330 µg/mL

## CC(=O)[C@H]1CC[C@H]2[C@@H]3CCC4=C/C(=N\OC(=O)[C@@H](N)C(C)C)CC[C@]4(C)[C@H]3CC[C@]12C [Compound P1-186, 3-Valine-Z-oxime-progesterone HCl]
physchem; phosphate buffered saline, room temperature, visible endpoint of saturation
  solubility: 15200 µg/mL
Cerebral edema
  efficacy in the cerebral edema assay (edema reduction) relative to PROG or group: average reduction in edema levels almost twice that of PROG
Primary cortical cells
  reduction in cell death at 5 μM: 34%
  reduction in cell death best concentration: 34%
  cell survival / reduction in cell death (in words): highest levels of cell survival among the compounds screened
  best concentration (for reduction in cell death): 5 µM
[1]
  in vivo stability of amino acid side chain / conversion to parent compound: readily cleaved to give primarily the parent oxime P2-02
